Reference: PMC9930120 (Journal of Chemical Information and Modeling, 2023)
Like-named read-outs stand apart in the source and are kept apart here.

Columns and labels:
human CB2 [1] = biological target: T1, human CB2 (Homo sapiens, UniProt P34972); experiment: biochemical; type: binding; details: for CB2 Ki (μM, 95% CI) / CB2 pKi ± SEM / Ki: [3H]CP-55,940 displacement, CHO-K1 membranes
Method: The compounds selected for the in vitro binding assay were purchased via MolPort, SIA, Riga, Latvia (Supporting Information S2). Membrane preparations from CHO-K1 cells expressing the human CB2 (ChemiSCREEN Membrane Preparation Recombinant Human CB2 Cannabinoid Receptor. Merck, USA) were incubated in duplicate with 0.8 nM [^3H]CP-55,940 (specific activity: 101 Ci/mmole, PerkinElmer, USA) in a 50 mM Tris–HCl, pH = 7.4 buffer supplemented with 2.5 mM EDTA, 5 mM MgCl2, 0.5 mg/mL BSA and increasing concentrations of the compounds tested. Compounds were dissolved in 50% DMSO and added to the reaction mixture at 10 concentrations equally spaced on a log scale (10^–10–10^–4.5 M). The final DMSO concentration was 5%. […] The reaction mixture (500 μL) was incubated for 1.5 h at 30 °C. Before harvesting, Brandel Whatman GF/B Filter Paper was presoaked with 0.5% polyethylenimine buffer for 30 min and then washed with 2 mL of 50 mM Tris–HCl buffer (pH = 7.4) containing 0.5% BSA to minimize nonspecific binding. The reaction was terminated by depositing the samples onto the filter paper with the Brandel M–24 Cell Harvester. Samples were then rapidly washed three times with 2 mL of wash buffer (50 mM Tris–HCl pH 7.4, 2.5 mM EDTA, 5 mM MgCl2, 0.5 mg/mL BSA) to separate the bound radioligand from free. Filters were then air-dried for 1.5 h at 60 °C. After drying, filter discs were placed on a flexible 24-well plate and 500 μL of EcoScint-20 scintillant (PerkinElmer, USA) was added to each well. Plates were counted (2 min per well) in a Trilux MicroBeta counter (PerkinElmer, USA). Data were analyzed with GraphPad Prism 5.0 software.

human CB2 [2] = biological target: T1, human CB2; details: cited from earlier work
human CB1 receptors = biological target: T2, human CB1 receptors (Homo sapiens, UniProt P21554); experiment: CB1 radioligand displacement assay ([3H]CP-55,940); type: binding; details: for CB1 Ki (μM, 95% CI) / CB1 pKi ± SEM: [3H]CP-55,940 displacement, Chem-1 membranes
T2 construct: purchased Merck; host or cells: Chem-1
T2 sequence (P21554 whole entry): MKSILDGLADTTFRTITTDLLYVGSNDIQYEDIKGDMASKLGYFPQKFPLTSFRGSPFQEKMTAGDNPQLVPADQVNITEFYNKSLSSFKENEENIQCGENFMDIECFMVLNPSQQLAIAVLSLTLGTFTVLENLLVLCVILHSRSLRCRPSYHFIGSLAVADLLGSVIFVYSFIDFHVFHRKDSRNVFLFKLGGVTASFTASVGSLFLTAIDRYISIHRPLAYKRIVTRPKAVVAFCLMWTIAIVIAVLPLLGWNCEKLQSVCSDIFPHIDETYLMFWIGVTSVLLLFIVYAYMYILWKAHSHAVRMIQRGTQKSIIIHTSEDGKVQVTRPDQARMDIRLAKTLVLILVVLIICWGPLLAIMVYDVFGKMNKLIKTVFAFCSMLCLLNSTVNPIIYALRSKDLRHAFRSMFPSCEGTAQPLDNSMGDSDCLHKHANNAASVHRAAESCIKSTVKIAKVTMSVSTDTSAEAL
Method: Membrane preparations from Chem-1 cells expressing the human CB1 receptors (ChemiSCREEN CB1 Cannabinoid Receptor Membrane Preparation. Merck, USA) were incubated in duplicate with 1 nM [^3H]CP-55,940 (specific activity: 108.5 Ci/mmole, PerkinElmer, USA) in a 50 mM Tris–HCl, pH = 7.4 buffer supplemented with 1 mM CaCl2, 5 mM MgCl2, 0.2% BSA and increasing concentrations of the compounds tested. Compounds were dissolved in 50% DMSO and added to the reaction mixture at 10 concentrations equally spaced on a log scale (10^–10–10^–4.5 M). The final DMSO concentration was 5%. […] The reaction mixture (500 μL) was incubated for 1.5 h at 30 °C. Before harvesting, Brandel Whatman GF/B Filter Paper was presoaked with 0.5% polyethylenimine buffer for 30 min and then washed with 2 mL of 50 mM Tris–HCl buffer (pH = 7.4) containing 0.5% BSA to minimize nonspecific binding. The reaction was terminated by depositing the samples onto the filter paper with the Brandel M-24 Cell Harvester. Samples were then rapidly washed three times with 2 mL of wash buffer (50 mM Tris–HCl pH 7.4, 500 mM NaCl, and 5 mM MgCl2) to separate the bound radioligand from the free one. The rest of the procedure was the same as for CB2.

human CB2 [3] = biological target: T1, human CB2; experiment: CB2 [35S]GTPγS assay; type: biochemical; design: purchased PerkinElmer ES-111-M400UA; host or cells: CHO-K1; details: compounds at 10 μM, 100 nM CP-55,940 as stimulating ligand
Method: Ten micromolar concentrations of each compound were incubated in triplicate with membrane preparations from CHO-K1 cells expressing the human CB2 receptor (0.5 μg per well) (PerkinElmer, Cat. No. ES-111-M400UA) in an assay buffer containing 50 mM Tris–HCl, pH = 7.4, 0.2 mM EGTA, 3 mM MgCl2, 100 mM NaCl, 30 μM GDP and 1 mg/mL BSA) in the presence of 0.08 nM [^35S] guanosine 5′-[γ-thio]triphosphate ([^35S]GTPγS) (specific activity: 1250 Ci/mmole, PerkinElmer). Nonspecific binding was determined with 100 μM of unlabeled GTPγS. CP-55,940 (100 nM) was used as stimulating ligand. The final DMSO concentration in the assay was 5%. The reaction mixture was incubated for 60 min at 30 °C. Next, the samples were deposited under vacuum with the FilterMate Harvester (PerkinElmer, USA) onto Unifilter GF/B Plates (PerkinElmer, USA) presoaked with wash buffer (50 mM Tris–HCl, pH = 7.4). The samples were then rapidly washed with 2 mL of wash buffer. Filter plates were dried for 30 min at 50 °C and 40 μL of MicroScint PS (PerkinElmer, USA) scintillation fluid was added to each well. Radioactivity was counted in a Trilux MicroBeta^2 counter (PerkinElmer, USA). Data were analyzed with GraphPad Prism 5.0 software. Results were expressed as percent of basal [^35S]GTPγS binding in the presence of CP-55,940 from three separate experiments. Basal binding was set to 100%.

[4] = read-out: CB2 pKi ± SEM (converted)

T1 sequence (P34972 whole entry): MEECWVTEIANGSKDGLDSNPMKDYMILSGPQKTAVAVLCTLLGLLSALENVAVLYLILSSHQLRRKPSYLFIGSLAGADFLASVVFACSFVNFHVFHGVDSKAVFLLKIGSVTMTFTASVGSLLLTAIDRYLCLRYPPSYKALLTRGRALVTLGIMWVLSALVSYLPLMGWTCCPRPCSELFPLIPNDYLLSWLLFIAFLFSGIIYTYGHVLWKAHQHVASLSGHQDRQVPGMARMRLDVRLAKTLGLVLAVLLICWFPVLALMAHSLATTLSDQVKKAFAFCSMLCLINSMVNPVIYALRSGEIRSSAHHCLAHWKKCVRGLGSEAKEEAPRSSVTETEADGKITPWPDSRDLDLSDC

SMILES | CB2 Ki (μM, 95% CI) (human CB2 [1]) | CB2 pKi ± SEM (human CB2 [1]) | further results
Cc1cc(CSc2nnc(-c3nn(Cc4ccccc4)c(=O)c4ccccc34)o2)no1 [AS-6] | no activity | no activity | –
CCCCCc1cc(O)c(C/C=C(\C)CCC=C(C)C)c(O)c1 [Cannabigerol] | – | – | Ki (human CB2 [2]): 2.92 µM
O=C(NCc1cccs1)c1cccc(Nc2nn3c(=O)c4ccccc4nc3s2)c1 [AS-11] | no activity | no activity | –
N#Cc1c(Oc2cccc(OS(=O)(=O)CCCC(F)(F)F)c2)cccc1C(F)(F)F [BAY 59-3074] | – | – | Ki (human CB2 [2]): 0.0455 µM
CCOC(=O)c1ccc(NC(=O)Cn2c(=O)nc(-c3ccccc3)c3cc(Cl)ccc32)cc1 [AS-2] | no activity | no activity | –
COCc1cc2nn(CC(=O)NCc3ccccc3Cl)c(=O)n2c(-c2ccccc2)n1 [AS-14] | no activity | no activity | –
COc1cccc(-c2nn(Cn3nc([N+](=O)[O-])cc3C)c(-c3cccc(OC)c3)c2Cl)c1 [AS-9] | – | – | Ki (human CB2 [1]; [4]): 2.09 µM; CB1 Ki (μM, 95% CI) (human CB1 receptors): no activity; CB1 pKi ± SEM (human CB1 receptors): no activity
CCCC(C)(C)c1ccc2c(c1)OC(C)(C)[C@@H]1CC=C(C)C[C@@H]21 [JWH-133] | – | – | Ki (human CB2 [2]): 0.0034 µM
COc1ccc(C(=O)c2c(C)n(CCN3CCOCC3)c3cc(I)ccc23)cc1 [AM-630] | – | – | Ki (human CB2 [2]): 0.0312 µM
Cc1nn(-c2ccccc2)c(C)c1CCc1nn2c(-c3ccccc3F)nnc2s1 [AS-4] | no activity | no activity | –
C[C@H](Sc1nnc2c3ccccc3nc(-c3ccccc3)n12)C(=O)NC[C@@H]1CCCO1 [AS-8] | – | – | Ki (human CB2 [1]; read-out: CB2 Ki (μM, 95% CI)): 6.37 µM; CB1 Ki (μM, 95% CI) (human CB1 receptors): no activity; CB1 pKi ± SEM (human CB1 receptors): no activity
COc1cccc(Oc2c(C)oc3c4c(ccc3c2=O)OCN(Cc2ccccn2)C4)c1 [AS-3] | no activity | no activity | –
Cc1nn(-c2ccccc2)c(C)c1C(=O)C(=O)Nc1cc(F)ccc1NC(=O)c1ccccn1 [AS-13] | no activity | no activity | –
Cc1ccccc1-c1cc(C(=O)N2CCN(Cc3ccc4c(c3)OCO4)CC2)c2ccccc2n1 [AS-5] | – | – | Ki (human CB2 [1]; [4]): 0.209 µM; CB1 Ki (μM, 95% CI) (human CB1 receptors): no activity; CB1 pKi ± SEM (human CB1 receptors): no activity; CB2 intrinsic activity (human CB2 [3]): CB2 antagonists
Cc1sc2nc(SCC(=O)c3ccc4c(c3)N(C)C(=O)CO4)nc(O)c2c1-c1ccccc1 [AS-1] | no activity | no activity | –
CN(Cc1ccccn1)C(=O)c1c2ccccc2c2n1CCCN(Cc1ccccc1)C2=O [AS-15] | no activity | no activity | –
Cc1cc(C)n(C[C@@H](O)c2ccc(-n3c4c(c5ccccc5c3=O)C(=O)c3ccccc3-4)cc2)n1 [AS-16] | no activity | no activity | –
Cc1cc(C(=O)Nc2cccc(C)c2C)c2c(C)nn(Cc3ccccc3)c2n1 [AS-12] | no activity | no activity | –
COc1ccc(C(=O)/C=C(\C(=O)c2ccccc2)c2ccccc2)cc1CN1CCOCC1 [AS-7] | – | – | selectivity index for CB2 (Ki-CB1/Ki-CB2) (human CB2 [1]): > 40; Ki (human CB2 [1]; CB2 Ki (μM, 95% CI)): 0.065 µM; Ki (human CB2 [1]; CB2 pKi ± SEM): 0.0661 µM; Ki (human CB1 receptors): 2.67 µM; CB1 pKi ± SEM (human CB1 receptors): 5.57 ± 0.9; CB2 intrinsic activity (human CB2 [3]): CB2 antagonists
Cc1nn(Cc2ccccc2)c(Cl)c1C(=O)NCc1ccccc1Cn1ccnc1 [AS-10] | – | – | Ki (human CB2 [1]; read-out: CB2 Ki (μM, 95% CI)): 17.9 µM; Ki (human CB2 [1]; [4]): 18.2 µM
